Reference: patent US9000025B2, “Autotaxin inhibitors and uses thereof” (Amira Pharmaceuticals, Inc., priority 2010, dated 2015)

Target: T1, autotaxin (ATX) (Homo sapiens, UniProt Q13822)
T1 construct: conditioned medium from the human melanoma cell line, MDA-MB-4355, which endogenously expresses autotaxin; host or cells: MDA-MB-435S human melanoma cells; serum-free conditioned medium, concentrated 20-fold
Assay: Native Autotaxin Choline Release Assay
Format: biochemical
Conditions: autotaxin in conditioned medium from human melanoma cell line; choline released from LPC; read-out: MDA-MB-435S Assay IC50
Experimental: ATX activity is determined by measuring the amount of choline realeased from the substrate, lyosphophatidylcholine (LPC). […] After reaching confluency, the cells are washed twice with phosphate-buffered saline (PBS) then cultured for 48 hours in phenol-red free, serum-free DMEM containing sodium pyruvate. […] 100 μl of a color mix which contains 4.5 mM 4-aminoantipyrine, 2.7 mM N-ethyl-N-(2-hydroxy-3-sulfopropyl)-m-toluidine, 21 units/ml horseradish peroxidase and 3 units/ml choline oxidase in 50 mM Tris, pH 8, 4.5 mM MgCl2 is added and the incubation continued at 37° C. for 10 minutes before reading the absorbance at 555 nm. The concentration of released choline in the sample is determined from a choline standard curve and is equal to the concentration of LPA produced.

Cc1c(Sc2cccc(C(=O)O)c2)c2ccc(Cl)cc2n1-c1cnsc1 [Compound 1-42, 3-(6-Chloro-1-isothiazol-4-yl-2-methyl-1H-indol-3-ylsulfanyl)-benzoic acid] and CCn1cc(-n2c(C)c(Sc3cccc(C(=O)O)c3)c3ccc(Cl)cc32)cn1 [Compound 1-43, 3-[6-Chloro-1-(1-ethyl-1H-pyrazol-4-yl)-2-methyl-1H-indol-3-ylsulfanyl]-benzoic acid] cannot be ordered by IC50: less than 300 nM for the first, less than 300 nM for the second.

Cc1c(Sc2cccc(C(=O)O)c2)c2ccc(Cl)cc2n1-c1cnn(C(C)C)c1 [Compound 1-44, 3-[6-Chloro-1-(1-isopropyl-1H-pyrazol-4-yl)-2-methyl-1H-indol-3-ylsulfanyl]-benzoic acid] and CCCn1cc(-n2c(C)c(Sc3cccc(C(=O)O)c3)c3ccc(Cl)cc32)cn1 [Compound 1-57, 3-[6-Chloro-2-methyl-1-(1-propyl-1H-pyrazol-4-yl)-1H-indol-3-ylsulfanyl]-benzoic acid] cannot be ordered by IC50: less than 300 nM for the first, less than 300 nM for the second.

Cc1c(Sc2cccc(CC(=O)O)c2)c2ccc(Cl)cc2n1-c1cnn(C)c1 [Compound 1-45, {3-[6-Chloro-2-methyl-1-(1-methyl-1H-pyrazol-4-yl)-1H-indol-3-ylsulfanyl]-phenyl}-acetic acid] and CCn1cc(-n2c(C)c(Sc3cccc(CC(=O)O)c3)c3ccc(Cl)cc32)cn1 [Compound 1-69, {3-[6-Chloro-1-(1-ethyl-1H-pyrazol-4-yl)-2-methyl-1H-indol-3-ylsulfanyl]-phenyl}-acetic acid] cannot be ordered by IC50: less than 300 nM for the first, less than 300 nM for the second.

Cc1c(Sc2cc(C(=O)O)cc(C(F)(F)F)c2)c2ccc(Cl)cc2n1-c1cccnc1 [Compound 1-46, 3-(6-Chloro-2-methyl-1-pyridin-3-yl-1H-indol-3-ylsulfanyl)-5-trifluoromethyl-benzoic acid] and Cc1c(Sc2cc(C(=O)O)cc(C(F)(F)F)c2)c2ccc(Cl)cc2n1-c1cnn(C)c1 [Compound 1-53, 3-[6-Chloro-2-methyl-1-(1-methyl-1H-pyrazol-4-yl)-1H-indol-3-ylsulfanyl]-5-trifluoromethyl-benzoic acid] cannot be ordered by IC50: greater than 1000 nM for the first, greater than 1000 nM for the second.

Going from COc1ccc(CC(=O)O)cc1Sc1c(C)n(-c2cnn(C)c2)c2cc(Cl)ccc12 [Compound 1-47, {3-[6-Chloro-2-methyl-1-(1-methyl-1H-pyrazol-4-yl)-1H-indol-3-ylsulfanyl]-4-methoxy-phenyl}-acetic acid] to COc1c(Sc2c(C)n(-c3cnn(C)c3)c3cc(Cl)ccc23)cccc1C(=O)O [Compound 1-61, 3-[6-Chloro-2-methyl-1-(1-methyl-1H-pyrazol-4-yl)-1H-indol-3-ylsulfanyl]-2-methoxy-benzoic acid], the IC50 falls from greater than 1000 nM to less than 300 nM. The second is the more potent here.

Cc1cncc(-n2c(C)c(Sc3cccc(CC(=O)O)c3)c3ccc(Cl)cc32)c1 [Compound 1-48, {3-[6-Chloro-2-methyl-1-(5-methyl-pyridin-3-yl)-1H-indol-3-ylsulfanyl]-phenyl}-acetic acid] and Cc1cncc(-n2c(C)c(Sc3cccc(C(=O)O)c3)c3ccc(Cl)cc32)c1 [Compound 1-56, 3-[6-Chloro-2-methyl-1-(5-methyl-pyridin-3-yl)-1H-indol-3-ylsulfanyl]-benzoic acid] cannot be ordered by IC50: less than 300 nM for the first, less than 300 nM for the second.

Compared with CCC(C(=O)O)c1cccc(Sc2c(C)n(-c3cccnc3)c3cc(Cl)ccc23)c1 (centres unmarked) [Compound 1-49, 2-[3-(6-Chloro-2-methyl-1-pyridin-3-yl-1H-indol-3-ylsulfanyl)-phenyl]-butyric acid], Cc1ccc(C(=O)O)cc1Sc1c(C)n(-c2cccnc2)c2cc(Cl)ccc12 [Compound 1-54, 3-(6-Chloro-2-methyl-1-pyridin-3-yl-1H-indol-3-ylsulfanyl)-4-methyl-benzoic acid] is higher in IC50: less than 300 nM for the first, greater than 1000 nM for the second.

First: Cc1ccc(C(=O)O)cc1Sc1c(C)n(-c2cnn(C)c2)c2cc(Cl)ccc12 [Compound 1-50, 3-[6-Chloro-2-methyl-1-(1-methyl-1H-pyrazol-4-yl)-1H-indol-3-ylsulfanyl]-4-methyl-benzoic acid]
Second: Cc1c(Sc2c(C)n(-c3cnn(C)c3)c3cc(Cl)ccc23)cccc1C(=O)O [Compound 1-63, 3-[6-Chloro-2-methyl-1-(1-methyl-1H-pyrazol-4-yl)-1H-indol-3-ylsulfanyl]-2-methyl-benzoic acid]
The IC50 of the first is higher: greater than 1000 nM for the first, less than 300 nM for the second.

CCn1cc(-n2c(C)c(Sc3cc(Br)cc(C(=O)O)c3)c3ccc(Cl)cc32)cn1 [Compound 1-51, 3-Bromo-5-[6-chloro-1-(1-ethyl-1H-pyrazol-4-yl)-2-methyl-1H-indol-3-ylsulfanyl]-benzoic acid] and CCn1cc(-n2c(C)c(Sc3cc(C)cc(C(=O)O)c3)c3ccc(Cl)cc32)cn1 [Compound 1-52, 3-[6-Chloro-1-(1-ethyl-1H-pyrazol-4-yl)-2-methyl-1H-indol-3-ylsulfanyl]-5-methyl-benzoic acid] cannot be ordered by IC50: greater than 1000 nM for the first, greater than 1000 nM for the second.

Cc1c(Sc2cccc(C(=O)O)c2)c2ccc(Cl)cc2n1-c1cnn(CC(F)(F)F)c1 [Compound 1-55, 3-{6-Chloro-2-methyl-1-[1-(2,2,2-trifluoro-ethyl)-1H-pyrazol-4-yl]-1H-indol-3-ylsulfanyl}-benzoic acid] and CCCCn1cc(-n2c(C)c(Sc3cccc(C(=O)O)c3)c3ccc(Cl)cc32)cn1 [Compound 1-72, 3-[1-(1-Butyl-1H-pyrazol-4-yl)-6-chloro-2-methyl-1H-indol-3-ylsulfanyl]-benzoic acid] cannot be ordered by IC50: less than 300 nM for the first, less than 300 nM for the second.

Cc1c(Sc2cccc(C(=O)O)c2)c2ccc(Cl)cc2n1-c1cnn(-c2ccccc2)c1 [Compound 1-58, 3-[6-Chloro-2-methyl-1-(1-phenyl-1H-pyrazol-4-yl)-1H-indol-3-ylsulfanyl]-benzoic acid] and Cc1c(Sc2cccc(C(=O)O)c2)c2ccc(Cl)cc2n1-c1cnn(Cc2ccccc2)c1 [Compound 1-59, 3-[1-(1-Benzyl-1H-pyrazol-4-yl)-6-chloro-2-methyl-1H-indol-3-ylsulfanyl]-benzoic acid] cannot be ordered by IC50: less than 300 nM for the first, less than 300 nM for the second.

First: Cc1nn(C)cc1-n1c(C)c(Sc2cccc(C(=O)O)c2)c2ccc(Cl)cc21 [Compound 1-60, 3-[6-Chloro-1-(1,3-dimethyl-1H-pyrazol-4-yl)-2-methyl-1H-indol-3-ylsulfanyl]-benzoic acid]
Second: Cc1ccc(-n2c(C)c(Sc3cccc(C(=O)O)c3)c3ccc(Cl)cc32)nn1 [Compound 1-68, 3-[6-Chloro-2-methyl-1-(6-methyl-pyridazin-3-yl)-1H-indol-3-ylsulfanyl]-benzoic acid]
The IC50 of the first is lower: less than 300 nM for the first, 300 to 1000 nM for the second. The first is the more potent here.

CCn1cc(-n2c(C)c(Sc3cccc(C(=O)O)c3OC)c3ccc(Cl)cc32)cn1 [Compound 1-62, 3-[6-Chloro-2-methyl-1-(1-ethyl-1H-pyrazol-4-yl)-1H-indol-3-ylsulfanyl]-2-methoxy-benzoic acid] and CCn1cc(-n2c(C)c(Sc3cccc(C(=O)O)c3C)c3ccc(Cl)cc32)cn1 [Compound 1-64, 3-[6-Chloro-2-methyl-1-(1-ethyl-1H-pyrazol-4-yl)-1H-indol-3-ylsulfanyl]-2-methyl-benzoic acid] cannot be ordered by IC50: less than 300 nM for the first, less than 300 nM for the second.

Cc1cncc(-n2c(C)c(Sc3cccc(C(=O)O)c3C)c3ccc(Cl)cc32)c1 [Compound 1-65, 3-[6-Chloro-2-methyl-1-(5-methyl-pyridin-3-yl)-1H-indol-3-ylsulfanyl]-2-methyl-benzoic acid] and Cc1cncc(-n2c(C)c(Sc3cccc(C(=O)O)c3F)c3ccc(Cl)cc32)c1 [Compound 1-66, 3-[6-Chloro-2-methyl-1-(5-methyl-pyridin-3-yl)-1H-indol-3-ylsulfanyl]-2-fluoro-benzoic acid] cannot be ordered by IC50: less than 300 nM for the first, less than 300 nM for the second.

CCn1cc(-n2c(C)c(Sc3cccc(C(=O)O)c3F)c3ccc(Cl)cc32)cn1 [Compound 1-67, 3-[6-Chloro-2-methyl-1-(1-ethyl-1H-pyrazol-4-yl)-1H-indol-3-ylsulfanyl]-2-fluoro-benzoic acid] and CCn1cc(-n2c(C)c(Sc3ccc(F)c(C(=O)O)c3)c3ccc(Cl)cc32)cn1 [Compound 1-76, 5-[6-chloro-1-(1-ethyl-1H-pyrazol-4-yl)-2-methyl-1H-indol-3-ylsulfanyl]-2-fluoro-benzoic acid] cannot be ordered by IC50: less than 300 nM for the first, less than 300 nM for the second.

CCCn1cc(-n2c(C)c(Sc3cccc(CC(=O)O)c3)c3ccc(Cl)cc32)cn1 [Compound 1-70, {3-[6-Chloro-1-(1-propyl-1H-pyrazol-4-yl)-2-methyl-1H-indol-3-ylsulfanyl]-phenyl}-acetic acid] and CCn1cc(-n2c(C)c(Sc3cccc(C4(C(=O)O)CC4)c3)c3ccc(Cl)cc32)cn1 [Compound 1-74, 1-{3-[6-Chloro-1-(1-ethyl-1H-pyrazol-4-yl)-2-methyl-1H-indol-3-ylsulfanyl]-phenyl}-cyclopropanecarboxylic acid] cannot be ordered by IC50: less than 300 nM for the first, less than 300 nM for the second.

Going from Cc1c(Sc2cccc(C(=O)O)c2)c2ccc(Cl)cc2n1-c1cnn(-c2ccc(F)cc2)c1 [Compound 1-71, 3-{6-Chloro-1-[1-(4-fluoro-phenyl)-1H-pyrazol-4-yl]-2-methyl-1H-indol-3-ylsulfanyl}-benzoic acid] to CCn1cc(-n2c(C)c(Sc3cccc(C(=O)O)c3)c3ccc(S(C)(=O)=O)cc32)cn1 [Compound 1-75, 3-[1-(1-Ethyl-1H-pyrazol-4-yl)-6-methanesulfonyl-2-methyl-1H-indol-3-ylsulfanyl]-benzoic acid], the IC50 rises from less than 300 nM to greater than 1000 nM.

CCc1cncc(-n2c(C)c(Sc3cccc(C(=O)O)c3F)c3ccc(Cl)cc32)c1 [Compound 1-73, 3-[6-Chloro-1-(5-ethyl-pyridin-3-yl)-2-methyl-1H-indol-3-ylsulfanyl]-2-fluoro-benzoic acid] was tested, and the IC50 was less than 300 nM.
